Here are results for two compounds from ChEMBL document CHEMBL6083204, “Synthesis of a celastrol derivative as a cancer stem cell inhibitor through regulation of the STAT3 pathway for treatment of ovarian cancer” (RSC Med Chem, 2024).

The structures appear in SMILES notation.

Series [1] deals with SK-OV-3. In words: Antiproliferative activity against human SK-OV-3 cells assessed as inhibition of cell growth incubated for 72 hrs by MTT assay. The series is classed as functional, cell-based. As to conditions: SK-OV-3, 72 h.
Series [2] is described as follows: Cytotoxicity against human IOSE80 cells assessed as inhibition of cell growth incubated for 72 hrs by MTT assay. The series is classed as toxicity, cell-based. (In general: Tetrazolium assays rely on reduction of a dye to a coloured formazan, in cell work by metabolically active cells.)
The test system of series [3] is A2780. Briefly: Antiproliferative activity against human A2780 cells assessed as inhibition of cell growth incubated for 72 hrs by MTT assay. The series is classed as functional, cell-based. As to conditions: A2780, 72 h.
The subject of series [4] is OVCAR-3. In words: Antiproliferative activity against human OVCAR-3 cells assessed as inhibition of cell growth incubated for 72 hrs by MTT assay. The series is classed as functional, cell-based. As to conditions: OVCAR-3, 72 h.
A short description of series [5]: Selectivity index, ratio of IC50 for cytotoxicity against human IOSE80 cells to IC50 for cytotoxicity against human SK-OV-3 cells.

One may read the IC50 as the midpoint of a concentration-inhibition curve. In the case of `COc1cccc2c1C(=O)c1c(O)c3c(c(O)c1C2=O)C[C@@](O)(C(=O)CO)C[C@@H]3O[C@H]1C[C@H](N)[C@H](O)[C@H](C)O1` [DOXORUBICIN], the results for the IC50 in series [1] and in series [3] were 1680 nM and 4180 nM, respectively. For the same compound, the concentration for half-maximal inhibition (IC50) at 72 h in series [2] came out at 760 nM.

As to `CC1=C(O)C(=O)C=C2C1=CC=C1[C@@]2(C)CC[C@@]2(C)[C@@H]3C[C@](C)(C(=O)O)CC[C@]3(C)CC[C@]12C` [CELASTROL], the IC50 in series [1] turned out to be 1270 nM; in series [4], 840 nM; in series [3], 1990 nM. For the same compound, the IC50 at 72 h in series [2] was determined as 2380 nM. Besides, the “Ratio IC50” value in series [5] is reported as 1.87.
